# Test results from patent publication US20060247318A1, “Small molecule inhibitors of STAT3 and the uses thereof” (priority 2005, published 2006).
# Key:
# [1] = system: breast cancer cells that contain constitutively active Stat3; assay: Cell viability assays using MTT; format: cell-based
# Text: (§1) Since STA-21 inhibited Stat3-dependent luciferase and DNA binding activities, it was next examined whether STA-21 inhibited the growth and survival of breast cancer cells with constitutive Stat3 signaling. […] The Stat3 status of the cell lines was confirmed by measurement of phosphorylated Stat3 (FIG. 4A).
# ERK (P-ERK) = assay: Western blot of MDA-MB-468 cell lysates; format: cell-based; settings: MDA-MB-468 cells, 48 h
# Experimental: (§2) FIGS. 3A-3B show the inhibition of Stat3 DNA binding activity and Stat3-regulated anti-apoptotic factors by STA-21. (A) MDA-MB-435s cell nuclear extract was incubated with 30 μM STA-21 for 30 min at room temperature, and then incubated with r-^32P-ATP labeled consensus binding sequence for 20 min at room temperature. The reaction mixtures were resolved on 8% polyacrylamide gel. (B) The lysates from MDA-MB-468 cells treated with the indicated concentrations of STA-21 for 48 h were resolved on 10% SDS-PAGE, then immunoblotted with antibodies as indicated.
# (§3) It was next examined whether or not STA-21 could reduce Stat3 DNA binding activity using electrophoretic mobility shift assays as reported (Turkson et al., J. Biol. Chem. 276:45443 (2001)). In MDA-MB-435s breast carcinoma cells with constitutive Stat3 signaling, high Stat3 DNA binding activity was observed (FIG. 3A).
# Bcl-XL = assay: Western blot of MDA-MB-468 cell lysates; format: cell-based; settings: MDA-MB-468 cells, 20 or 30 μM, 48 h
# Experimental: as §2, §3
# AKT (P-AKT) = assay: Western blot of MDA-MB-468 cell lysates; format: cell-based; settings: MDA-MB-468 cells, 48 h
# Experimental: as §2, §3
# Stat3 [2] = assay: Co-immunoprecipitation of Stat3-Flag and Stat3-HA (dimerization) in MDA-MB-435s cells; format: cell-based; settings: 20 μM, 24 h
# Text: (A) Untransfected and untreated MDA-MB-435s cells. (B and E) Cells cotransfected with pCMV-Stat3-Flag and pCMV-Stat3-HA plasmids were immunostained with anti-flag IgG-Rhodamine. (B) Untreated cells and (E) STA-21 treated cells. (C and F) Transfected cells were immunostained with anti-HA IgG-FITC. (C) Untreated cells and (F) STA-21 treated cells. (D and G) Transfected cells were co-immunostained with both anti-HA IgG-FITC and anti-flag IgG-Rhodamine. […] (H) MDA-MB-435s cells were cotransfected with pCMV-Stat3-Flag and pCMV-Stat3-HA plasmids and were exposed to 20 μM STA-21 for 24 h, then cell lysates were immunoprecipitated with anti-HA or anti-Flag antibodies. Immunoprecipitates were resolved on 10% SDS-PAGE and then immunoblotted with anti-HA, anti-Flag or anti-Stat3 antibodies.
# The effect of STA-21 on Stat3 in vivo dimerization in breast cancer MDA-MB-435s cells was also investigated. After the exposure to 20 μM STA-21 for 24 h, the cells were harvested and the lysates from the cells expressing Stat3-Flag and Stat3-HA tagged proteins were immunoprecipitated with an anti-Flag or anti-HA antibody, respectively. The immunoprecipitated reaction mixtures were resolved on a 10% SDS-PAGE and immunoblotted with an anti-HA, anti-Flag, or anti-Stat3 antibody, respectively.
# Stat1 = molecular target: T1, Stat1 (Homo sapiens, UniProt P42224); assay: Electrophoretic mobility shift assay, MDA-MB-435s cells; format: biochemical
# T1 construct: MDA-MB-435s cell nuclear extract was incubated with 30 μM STA-21 for 30 min at room temperature; endogenous in cells; host or cells: MDA-MB-435s nuclear extract
# T1 sequence (P42224 1-750): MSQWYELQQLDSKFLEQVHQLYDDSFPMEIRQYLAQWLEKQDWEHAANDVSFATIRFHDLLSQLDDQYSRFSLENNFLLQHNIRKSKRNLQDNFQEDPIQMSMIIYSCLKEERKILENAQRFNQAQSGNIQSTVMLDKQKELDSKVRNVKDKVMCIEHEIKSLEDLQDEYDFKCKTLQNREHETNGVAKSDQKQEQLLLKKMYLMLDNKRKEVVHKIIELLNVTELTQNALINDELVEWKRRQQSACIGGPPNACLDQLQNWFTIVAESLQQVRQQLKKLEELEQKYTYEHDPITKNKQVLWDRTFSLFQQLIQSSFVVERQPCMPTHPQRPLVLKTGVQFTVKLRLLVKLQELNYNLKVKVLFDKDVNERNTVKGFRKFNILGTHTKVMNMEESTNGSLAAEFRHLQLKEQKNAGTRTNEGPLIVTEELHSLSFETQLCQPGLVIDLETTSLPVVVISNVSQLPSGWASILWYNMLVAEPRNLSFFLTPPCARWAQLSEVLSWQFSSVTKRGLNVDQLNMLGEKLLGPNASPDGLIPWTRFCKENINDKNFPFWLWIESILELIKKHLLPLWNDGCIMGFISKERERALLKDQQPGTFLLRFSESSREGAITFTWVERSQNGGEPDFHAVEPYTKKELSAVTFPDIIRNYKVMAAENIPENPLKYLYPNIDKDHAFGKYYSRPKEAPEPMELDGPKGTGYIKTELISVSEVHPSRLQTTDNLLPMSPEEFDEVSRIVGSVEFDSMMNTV
# Stat3 [3] = assay: Electrophoretic mobility shift assay, MDA-MB-435s nuclear extract; format: biochemical; settings: 30 μM, 30 min
# Experimental: as §2, §3
# Stat3 [4] = assay: Stat3-dependent luciferase reporter (pLucTKS3) in MDA-MB-435s cloned cells; format: cell-based; settings: pLucTKS3, 20 μM, 48 h
# Experimental: (§4) FIGS. 2A-2B show the inhibition of Stat3 dependent luciferase activity in cancer cells by STA-21. (A) The clone from Caov-3 carcinoma cells stably transfected with pLucTKS3 Stat3-dependent luciferase reporter was used for initial Sat3 small molecule inhibitor screening. The cloned cells were treated with 20 μM of STA-21 as well as other small molecule compounds for 48 h, then the cells were harvested for luciferase activity analysis. (B) The clones from MDA-MB-435s cells stably transfected with pLucTKS3 Stat3-dependent luciferase reporter or SV40 luciferase reporter were treated with 20 μM of STA-21 for 48 h. Luciferase activity was measured using a Promega luciferase kit according to the manufacturer's instructions. The results were based on the averages and standard deviations from three separate experiments.
# (§5) The 100 selected inhibitors were evaluated using a Stat3 luciferase reporter system. Both MDA-MB-435s breast carcinoma cells and Caov-3 ovarian carcinoma cells express constitutively activated Stat3 (Song et al., Int. J. Oncol. 24:1017 (2004); Song et al., Biochem. Biophys. Res. Commun. 314:143 (2004)). […] The selected clones were exposed to Stat3 inhibitors at a final concentration of 20 μM for 48 h and luciferase activity was measured using a Promega Luciferase kit (Madison, Wis.).
# Stat3 [5] = assay: Stat3-dependent luciferase reporter (pLucTKS3) in Caov-3 cloned cells; format: cell-based; settings: pLucTKS3, 20 μM, 48 h
# Experimental: as §4, §5
# Stat5 = assay: Electrophoretic mobility shift assay, MDA-MB-435s cells; format: biochemical
# MCF7 = assay: Sub-G1 flow cytometry (apoptotic cells), survival; format: cell-based; settings: MCF7, no constitutive Stat3 signaling, 20 μM or 30 μM, 48 h
# Experimental: (§6) (A) The phosphorylation of Stat3 at Y-705 in different cell lines. (B) The cell lines were treated with STA-21 at concentrations as indicated for 48 h, and then cells were harvested and analyzed for the Sub-G1 profile that indicated apoptotic cells on a FACScan Flow Cytometer (Becton Dickinson, San Jose, Calif.). The results were based on the averages and standard deviations from three separate experiments.
# as §1
# [6] = system: human skin fibroblasts (HSF); assay: Sub-G1 flow cytometry (apoptotic cells), survival; format: cell-based; settings: no constitutive Stat3 signaling, 20 μM or 30 μM, 48 h
# Experimental: as §6, §1
# MDA-MB-435s = assay: Sub-G1 flow cytometry (apoptotic cells), survival; format: cell-based; settings: constitutively activated Stat3, 20 μM or 30 μM, 48 h
# Experimental: as §6, §1
# MDA-MB-231 = assay: Sub-G1 flow cytometry (apoptotic cells), survival; format: cell-based; settings: MDA-MB-231, constitutively activated Stat3, 20 μM or 30 μM, 48 h
# Experimental: as §6, §1
# MDA-MB-468 = assay: Sub-G1 flow cytometry (apoptotic cells), survival; format: cell-based; settings: MDA-MB-468, constitutively activated Stat3, 20 μM or 30 μM, 48 h
# Experimental: as §6, §1
# MDA-MB-453 = assay: Sub-G1 flow cytometry (apoptotic cells), survival; format: cell-based; settings: MDA-MB-453, no constitutive Stat3 signaling, 20 μM or 30 μM, 48 h
# Experimental: as §6, §1
# SV40 luciferase reporter = SV40 luciferase reporter (control lacking Stat3 binding sites) in MDA-MB-435s clones; format: cell-based; settings: reporter without Stat3 DNA binding site, 20 μM, 48 h
# Experimental: as §4, §5
smiles,measurement,setting,value
C[C@@H]1CC(=O)c2c(ccc3c2C(=O)c2cccc(O)c2C3=O)C1 [STA-21],"growth and survival, cell viability (MTT) combined with sub-G1 data",[1],strong potential to inhibit the growth and survival
same,phosphorylation of ERK (P-ERK),ERK (P-ERK),did not affect the phosphorylation
same,"downstream anti-apoptotic effector Bcl-XL, Western blot",Bcl-XL,inhibited the downstream anti-apoptotic effector Bcl-XL
same,phosphorylation of AKT (P-AKT),AKT (P-AKT),did not affect the phosphorylation
same,Stat3 dimerization between Stat3-Flag and Stat3-HA proteins,Stat3 [2],abrogated Stat3 dimerization
same,Stat1 DNA binding activity,Stat1,not Stat1 and Stat5 DNA binding activity
same,Stat3 DNA binding activity,Stat3 [3],inhibited Stat3 DNA binding activity
same,luciferase activity,Stat3 [4],decreased more than five fold
same,effect on Stat3 induced luciferase activity,Stat3 [5],remarkable inhibitory effect
same,Stat5 DNA binding activity,Stat5,not Stat1 and Stat5 DNA binding activity
same,inhibition of survival (sub-G1),MCF7,minimal inhibitory effect
same,inhibition of survival (sub-G1),[6],minimal inhibitory effect
same,inhibition of survival (accumulation of cells in sub-G1 phase),MDA-MB-435s,remarkable inhibitory activity
same,inhibition of survival (accumulation of cells in sub-G1 phase),MDA-MB-231,remarkable inhibitory activity
same,inhibition of survival (accumulation of cells in sub-G1 phase),MDA-MB-468,remarkable inhibitory activity
same,inhibition of survival (sub-G1),MDA-MB-453,minimal inhibitory effect
same,"luciferase activity, SV40 luciferase reporter",SV40 luciferase reporter,did not affect luciferase activity
